The values below come from PubChem BioAssay (NCI).

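In this assay, cells in 96-well plates receive the compound at five concentrations for 48 hours. Endpoints are linearly interpolated between the surrounding concentrations. Abbreviation: GI50, concentration required for 50% inhibition of growth. TGI: concentration producing complete growth inhibition.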

Test systems include ACHN renal; HOP-92 NSCLC; MALME-3M melanoma; MDA-MB-435; MOLT-4 leukemia; NCI-H460 lung; SNB-19 CNS; SW-620 colon; TK-10 renal; U251 CNS.
Assay in all cases: NCI-60 cell line screen, 48 h

Regarding `Cc1ccc(S(=O)(=O)c2ccsc2N)cc1`, the GI50 in the test with ACHN renal is more than 100 µM; in the test on HOP-92 NSCLC, 73.9 µM; in the test on MALME-3M melanoma, more than 100 µM; with MDA-MB-435, more than 100 µM; in the test on MOLT-4 leukemia, more than 100 µM; in the test with NCI-H460 lung it was more than 100 µM. Besides, the GI50 in the test with SNB-19 CNS, in the test with SW-620 colon, with TK-10 renal and in the test on U251 CNS was more than 100 µM throughout. Further, the TGI in the test on ACHN renal, in the test with HOP-92 NSCLC, in the test with MALME-3M melanoma, in the test on MDA-MB-435, in the test with MOLT-4 leukemia and in the test on NCI-H460 lung was more than 100 µM throughout. Besides, the TGI in the test with SNB-19 CNS, in the test on SW-620 colon, with TK-10 renal and in the test on U251 CNS was more than 100 µM each time.
As to `C(#Cc1ccccc1C#Cc1ccccn1)c1ccccn1`, the GI50 with ACHN renal was 15.6 µM; in the test on HOP-92 NSCLC it was 1.96 µM; in the test on MALME-3M melanoma, 7.74 µM; in the test on MDA-MB-435, 8.43 µM; in the test on MOLT-4 leukemia, 3.44 µM; with NCI-H460 lung it was 23.1 µM. Further, the GI50 with SNB-19 CNS was 18 µM; in the test with SW-620 colon it was 21.2 µM; with TK-10 renal, 6.54 µM; in the test with U251 CNS, 11.5 µM. Moreover, the TGI amounted to 29.6 µM with ACHN renal; 12.2 µM in the test with HOP-92 NSCLC; 21 µM in the test on MALME-3M melanoma; 22.5 µM with MDA-MB-435; 20.1 µM in the test with MOLT-4 leukemia; 58.8 µM with NCI-H460 lung. In addition, the TGI in the test on SNB-19 CNS is 39.3 µM; in the test on SW-620 colon, 56.7 µM; with TK-10 renal it was 22.3 µM; with U251 CNS it was 25.3 µM.
With `O=C(/C=C/c1ccccc1)CCc1c(O)c2ccccc2oc1=O`, the TGI in the test with ACHN renal, with HOP-92 NSCLC, in the test on MALME-3M melanoma, in the test on MDA-MB-435, with MOLT-4 leukemia and in the test with NCI-H460 lung was more than 100 µM each time. For the same compound, the TGI with SNB-19 CNS, in the test with SW-620 colon and in the test on U251 CNS was more than 100 µM each time.
As to `C[C@H]1CCC/C=C/[C@@H]2C[C@H](O)C[C@H]2[C@H](O)[C@@H](SC2OC(CO)C(O)C(O)C2O)CC(=O)O1` (some centres not stated), the GI50 in the test with ACHN renal is more than 100 µM; with HOP-92 NSCLC, more than 100 µM; in the test on MALME-3M melanoma it was 27.6 µM; in the test with MDA-MB-435, 69.8 µM; with MOLT-4 leukemia it was more than 100 µM; in the test on SNB-19 CNS, more than 100 µM. Besides, the GI50 with SW-620 colon, with TK-10 renal and in the test on U251 CNS was more than 100 µM throughout. Further, the TGI with ACHN renal was more than 100 µM; with HOP-92 NSCLC, more than 100 µM; in the test on MALME-3M melanoma it was 69.4 µM; with MDA-MB-435, more than 100 µM; in the test on MOLT-4 leukemia, more than 100 µM; with SNB-19 CNS it was more than 100 µM. Besides, the TGI with SW-620 colon, in the test with TK-10 renal and in the test with U251 CNS was more than 100 µM throughout.
Turning to `C=C(C)[C@@H]1CC[C@]2(C)[C@H](CC=C3[C@@H]4[C@H](C)[C@@H](C)CC[C@]4(CO)CC[C@]32C)[C@@]1(C)CCCN`, the GI50 is 1.42 µM in the test on ACHN renal; 1.04 µM in the test with HOP-92 NSCLC; 0.734 µM in the test with MALME-3M melanoma; 0.953 µM in the test with MDA-MB-435; 1.35 µM in the test on MOLT-4 leukemia; 0.914 µM with NCI-H460 lung. In addition, the GI50 was 2.11 µM with SNB-19 CNS, 1.01 µM in the test on SW-620 colon and 2.21 µM in the test with TK-10 renal. The TGI is 3.4 µM in the test with ACHN renal; 3.46 µM in the test with HOP-92 NSCLC; 1.42 µM in the test with MALME-3M melanoma; 1.81 µM with MDA-MB-435; 4.07 µM with MOLT-4 leukemia; 1.71 µM with NCI-H460 lung. In addition, the figures for the TGI in the test with SNB-19 CNS, in the test with SW-620 colon and in the test on TK-10 renal were 8.11 µM, 2.11 µM and 9.75 µM, respectively.
On to `Cc1nc2sc(C(=O)Nc3cccc(Cl)c3C)c(N)c2cc1C(C)O` (configuration not stated), for which the GI50 with ACHN renal is 0.63 µM; with HOP-92 NSCLC, 4.36 µM; in the test on MALME-3M melanoma it was 1.11 µM; with MDA-MB-435, 0.0288 µM; in the test with MOLT-4 leukemia it was 0.151 µM; in the test on NCI-H460 lung, 0.237 µM. In addition, the GI50 is 0.293 µM in the test with SNB-19 CNS, 0.127 µM in the test with SW-620 colon and 0.223 µM in the test with U251 CNS. The TGI with ACHN renal is more than 50.1 µM; in the test on HOP-92 NSCLC, 53.4 µM; with MALME-3M melanoma, 37.5 µM; with MDA-MB-435, 0.101 µM; with MOLT-4 leukemia, more than 42.7 µM; in the test with NCI-H460 lung, more than 37.2 µM. For the same compound, the TGI is more than 100 µM in the test on SNB-19 CNS, more than 54.3 µM with SW-620 colon and more than 39.2 µM with U251 CNS.
In the case of `N=C1C(c2nc(-c3ccc(Br)cc3)cs2)=C(O)CN1CC1CCCO1` (configuration not stated), the GI50 in the test on ACHN renal, in the test with HOP-92 NSCLC, in the test on MALME-3M melanoma, in the test with MDA-MB-435, with MOLT-4 leukemia and with SNB-19 CNS was more than 100 µM throughout. Further, the GI50 with TK-10 renal and in the test with U251 CNS was more than 100 µM each time. Further, the TGI in the test on ACHN renal, with HOP-92 NSCLC, in the test with MALME-3M melanoma, in the test on MDA-MB-435, in the test on MOLT-4 leukemia and in the test with SNB-19 CNS was more than 100 µM each time. In addition, the TGI in the test with TK-10 renal and in the test with U251 CNS was more than 100 µM in each case.
For `CC1(C)N=C(N)N=C(N)N1c1ccc(OCCCCNC(=O)c2ccc(S(=O)(=O)F)cc2)c(Cl)c1`, the GI50 in the test on ACHN renal is 41.6 µM; with HOP-92 NSCLC it was more than 100 µM; with MALME-3M melanoma, more than 100 µM; in the test on MDA-MB-435, 4.87 µM; in the test on MOLT-4 leukemia, 21.3 µM; in the test on NCI-H460 lung, 2.1 µM. Further, the GI50 in the test with SNB-19 CNS is 13.6 µM; in the test with SW-620 colon, 3.51 µM; in the test on U251 CNS it was 5.65 µM. The TGI with ACHN renal, in the test with HOP-92 NSCLC, in the test on MALME-3M melanoma, in the test with MDA-MB-435, with MOLT-4 leukemia and with NCI-H460 lung was more than 100 µM throughout. For the same compound, the TGI with SNB-19 CNS, with SW-620 colon and with U251 CNS was more than 100 µM in each case.
